Test results published in EP0595557A1, “New substituted azetidinones as anti-inflammatory and antidegenerative agents” (MERCK & CO. INC., priority 1992, dated 1994).

biological target: T1, Human Polymorphonuclear Leukocyte Elastase (Homo sapiens, UniProt P08246); experiment: Enzyme assay for inhibition of human polymorphonuclear leukocyte elastase via hydrolysis of Boc-AAPAN or Boc-AAPVN; assay type: biochemical; conditions: pH 7.5, second order rate constant for inactivation of the enzyme, expressed to the nearest thousand, read-out: Kobs/[I]
T1 construct: Crude extract of human polymorphonuclear leukocytes (PMN) containing elastase activity; from tissue; host or cells: human polymorphonuclear leukocytes (crude extract)
T1 sequence (P08246 30-267): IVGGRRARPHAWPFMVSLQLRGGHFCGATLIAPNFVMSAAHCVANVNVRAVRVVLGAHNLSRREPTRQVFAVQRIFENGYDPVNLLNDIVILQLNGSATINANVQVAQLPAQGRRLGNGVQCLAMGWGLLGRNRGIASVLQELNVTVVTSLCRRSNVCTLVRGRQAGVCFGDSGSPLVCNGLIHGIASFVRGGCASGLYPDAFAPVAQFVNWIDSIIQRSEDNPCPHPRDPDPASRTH
Description: Enzyme Assays for the Inhibition of Human Polymorphonuclear Leukocyte Elastase Via Hydrolysis of N-t-Boc-alanyl-alanyl-prolylalanine-p-nitroanilide (Boc-AAPAN) or N-t-Boc-alanyl-prolylvaline-p-nitro-anilide (Boc-AAPVN) Reagent:
0.05M TES (N-tris[hydroxymethyl]methyl-2-mino-ethanesulfonic acid) Buffer, pH 7.5.
0.2 mM Boc-AAPAN or Boc-AAPVN.
To prepare substrate, the solid was first dissolved in 10.0 ml DMSO. Buffer at pH 7.5 was then added to a final volume of 100 ml.
Crude extract of human polymorphonuclear leukocytes (PMN) containing elastase activity.
Inhibitors (azetidinones) to be tested dissolved in DMSO just before use.
To 1.0 ml of 0.2 mM Boc-AAPAN in a cuvette, 0.01-0.1 ml of DMSO with or without inhibitor was added. After mixing, a measurement was taken at 410 mµ to detect any spontaneous hydrolysis due to presence of test compound. 0.05 Milliliters of PMN extract was then added and the ΔOD/min at 410 mµ was measured and recorded. Beckman model 35 spectrophotometer was used.
Results were expressed to the nearest thousand ^kobs/I which is the second order rate constant in per mole per second for inactivation of the enzyme.
The elastase activity in the crude PMN extract may vary from one preparation to another. A control of each new batch is run, and the volume added in the assay procedure is adjusted according to activity.

| SMILES | kinact/KI [M⁻¹ s⁻¹] |
| --- | --- |
| CCC[C@@H](NC(=O)N1C(=O)C(CC)(CC)[C@@H]1Oc1ccc(C(=O)OCC(=O)N(C)C)cc1)c1ccc(C)cc1 (relative stereo) [Compound 6, 2-(dimethylamino)-2-oxoethyl, (S-(R*,S*))-4-((3,3-Diethyl-1-(((1-(4-methyl-phenyl)butyl)amino)carbonyl)-4-oxo-2-azetidinyl)oxy)-benzoate] | 3e+06 |
| CCC[C@@H](NC(=O)N1C(=O)C(CC)(CC)[C@@H]1Oc1ccc(C(=O)OCCN(C)C(C)=O)cc1)c1ccc(C)cc1 (relative stereo) [Compound 7, 2-(N-methylacetamido)ethyl. {2-(R*,S*)}-4-{{3,3-Diethyl-1-{{{1-(4-methyl-phenyl)butyl}amino}carbonyl}-4-oxo-2-azetidinyl}oxy}-benzoate] | 1.56e+06 |
| CCC[C@@H](NC(=O)N1C(=O)C(CC)(CC)[C@@H]1Oc1ccc(C(=O)OCC(=O)N2CCC[C@H]2C(=O)O)cc1)c1ccc(C)cc1 (relative stereo) [Compound 9, (S(R*,S*))-1-(((4-((3,3-diethyl-1-(((1-(4-methylphenyl)butyl)amino)carbonyl)-4-oxo-2-azetidinyl)oxy)benzoyl)oxy)acetyl) L-proline] | 1.57e+06 |
| CCC[C@@H](NC(=O)N1C(=O)C(CC)(CC)[C@@H]1Oc1ccc(C(=O)O[C@@H](C)C(=O)OCc2ccccc2)cc1)c1ccc(C)cc1 (relative stereo) [Compound 10, 1-Methyl-2-oxo-2-(phenylmethoxy)ethyl(2S-(1(S*),R*,(R)))-4-((3,3-diethyl-1-(((1-(4-methylphenyl)butyl)amino)carbonyl)-4-oxo-2-azetidinyl)oxy) benzoate] | 2.89e+06 |
| CCC[C@@H](NC(=O)N1C(=O)C(CC)(CC)[C@@H]1Oc1ccc(C(=O)N2CCN(C3CC3)CC2)cc1)c1ccc(C)cc1 (relative stereo) [Compound 256, [S(R*,S*)]-2-[4-[[(4-Cyclopropyl)piperazin-1-yl]carbonyl]phenoxy]-((3,3-diethyl-N-[1-(4-methylphenyl)butyl]-4-oxo-1-azetidinecarboxamide] | 3.59e+06 |
| CCC[C@@H](NC(=O)N1C(=O)C(CC)(CC)[C@@H]1Oc1cc(C)c(C(=O)OCCN(C)C)c(C)c1)c1ccc(C)cc1 (relative stereo) [Compound 304, 2-(dimethylamino)ethyl [S,(R*,S*)]-4-[[3,3-diethyl-1-[[[1-(4-methylphenyl)butyl]amino]carbonyl]-4-oxo-2-azetidinyl]oxy]-2,6-dimethyl-benzoate] | 563000 |
| CCCC(NC(=O)N1C(=O)C(CC)(CC)C1Oc1ccc(C(=O)OCCN(C)C)cc1)c1ccc(C)cc1 (stereo not drawn) [Compound 1, 2-(dimethylamino)ethyl (S-(R*,S*))-4-((3,3-diethyl-1-(((1-(4-methyl-phenyl)butyl)amino)carbonyl)-4-oxo-2-azetidinyl)oxy)benzoate] | 1.57e+06 |
| CCCC(NC(=O)N1C(=O)C(CC)(CC)C1Oc1ccc(C(=O)OCC(=O)O)cc1)c1ccc(C)cc1 (stereo not drawn) [Compound 2, Carboxymethyl [S-(R*,S*)]4-((3,3-diethyl-1-(((1-(4-methyl-phenyl)butyl)amino)carbonyl)-4-oxo-2-azetidinyl)oxy)benzoate] | 1.67e+06 |
| CCCC(NC(=O)N1C(=O)C(CC)(CC)C1Oc1ccc(C(=O)OCC(=O)N(CCO)CCO)cc1)c1ccc(C)cc1 (stereo not drawn) [Compound 3, 2-(bis(2-hydroxyethyl)amino)-2-oxoethyl(S-(R*,S*))-4-((3,3-diethyl-1-(((1-(4-methyl-phenyl)butyl)amino)carbonyl)-4-oxo-2-azetidinyl)oxy) benzoate] | 3.43e+06 |
| CCC[C@@H](NC(=O)N1C(=O)C(CC)(CC)[C@@H]1Oc1ccc(C(=O)OCC(=O)N(C)CC(N)=O)cc1)c1ccc(C)cc1 [Compound 4] | 4.29e+06 |
| CCC[C@@H](NC(=O)N1C(=O)C(CC)(CC)[C@@H]1Oc1ccc(C(=O)OCC(=O)NC(CO)(CO)CO)cc1)c1ccc(C)cc1 [Compound 5] | 4.45e+06 |
| CCC[C@@H](NC(=O)N1C(=O)C(CC)(CC)[C@@H]1Oc1ccc(C(=O)OCC(=O)N2CCC[C@H]2C(=O)OCc2ccccc2)cc1)c1ccc(C)cc1 [Compound 8] | 1.25e+07 |
